The results in this text go back to US8883793B2, “Tubulin inhibitors and methods of using the same” (Development Center for Biotechnology, priority 2010, dated 2014).

This experiment has as its system KB cell. In words: MTS assay, growth inhibition of KB cells. The settings on record: Homo sapiens, at 10 μM concentration, incubated for 72 h, read-out: Inhibition rate (%) (growth inhibition rate of MTS assay). It counts as cell-based. As for the experimental part: MTS assay was performed in determining the growth inhibition of cancer cells. MTS ((3-(4,5-dimethylthiazol-2-yl)-5-(3-carboxymethoxyphenyl)-2-(4-sulfophenyl)-2H-tetrazolium)), in the presence of phenazine methosulfate (PMS) and reductases, produces a formazan product that has an absorbance maximum at 490-500 nm. MTS assays (and closely related MTT assay) are commonly used to measure cell viabilities or survivals.
Briefly, KB/Hela, NCI-H460, A375, Colo205, HCT-116, U937, MCF-7, MDA-MB-231, A549, H1975 cells were seeded into 96-well plate at 4000, 4000, 2000, 2000, 2000 cells/well. After 24 h for attachment, test compound was added into each well and incubated for 72 h. A total of 20 μl of MTS reaction reagent containing the MTS (Promega, Madison, Wis.) and PMS in a ratio of 20:1 was added into each well to react with dehydrogenase enzyme in survival cells. After 3 h, the absorbance at 490 nm was monitored using Emax precision microplate reader (Molecular Devices, Sunnyvale, Calif.).
The growth inhibition rate of MTS assay at KB cell of these compounds (at 10 μM concentration) are list in Table 5.

As a reminder, the inhibition is the change of the read-out against control, counted positive when it falls. For `O=C(CCc1ccccc1)Nc1ncc(Cc2ccccc2)s1` [Compound 2, N-(5-Benzyl-thiazol-2-yl)-3-phenyl-propionamide], the inhibition at 10 µM came out at 95.5%.

As for `O=C(/C=C/c1ccccc1)Nc1ncc(Cc2ccccc2)s1` [Compound 3, N-(5-Benzyl-thiazol-2-yl)-3-phenyl-acrylamide], the inhibition at 10 µM came out at 94.3%.

On to `O=C(CCc1ccc(F)cc1)Nc1ncc(Cc2ccc3c(c2)OCO3)s1` [Compound 7, N-(5-Benzo[1,3]dioxol-5-ylmethyl-thiazol-2-yl)-3-(4-fluoro-phenyl)-propionamide], for which the inhibition at 10 µM was 91.7%.

For the molecule `O=C(CCc1cccnc1)Nc1ncc(Cc2ccc3c(c2)OCO3)s1` [Compound 8, N-(5-Benzo[1,3]dioxol-5-ylmethyl-thiazol-2-yl)-3-pyridin-3-yl-propionamide], the inhibition at 10 µM amounted to 90.6%.

Regarding `COc1ccc2cc(Cc3cnc(NC(=O)CCc4ccccc4)s3)ccc2c1` [Compound 14, N-[5-(6-Methoxy-naphthalen-2-ylmethyl)-thiazol-2-yl]-3-phenyl-propionamide], the inhibition at 10 µM was 89.5%.

On to `COc1ccc(CCC(=O)Nc2ncc(Cc3ccc(OC)cc3)s2)cc1` [Compound 15, N-[5-(4-Methoxy-benzyl)-thiazol-2-yl]-3-(4-methoxy-phenyl)-propionamide], for which the inhibition at 10 µM turned out to be 93%.

Consider `COc1ccc(Cc2cnc(NC(=O)CCc3ccncc3)s2)cc1` [Compound 16, N-[5-(4-Methoxy-benzyl)-thiazol-2-yl]-3-pyridin-4-yl-propionamide], for which the inhibition at 10 µM is 62%.

As for `COc1ccc(Cc2cnc(NC(=O)CCc3ccc(F)cc3)s2)cc1OC` [Compound 18, N-[5-(3,4-Dimethoxy-benzyl)-thiazol-2-yl]-3-(4-fluoro-phenyl)-propionamide], the inhibition at 10 µM came out at 96.6%.

`COc1ccc2cc(Cc3cnc(NC(=O)CCc4ccc(C)o4)s3)ccc2c1` [Compound 19, N-[5-(6-Methoxy-naphthalen-2-ylmethyl)-thiazol-2-yl]-3-(5-methyl-furan-2-yl)-propionamide]: the inhibition at 10 µM is 94.1%.

In the case of `COc1ccc(CCC(=O)Nc2ncc(Cc3ccc(OC)c(OC)c3)s2)cc1` [Compound 20, N-[5-(3,4-Dimethoxy-benzyl)-thiazol-2-yl]-3-(4-methoxy-phenyl)-propionamide], the inhibition at 10 µM came out at 93.4%.

Consider `Cc1ccc(CCC(=O)Nc2ncc(Cc3ccc4ccccc4c3)s2)o1` [Compound 21, 3-(5-Methyl-furan-2-yl)-N-(5-naphthalen-2-ylmethyl-thiazol-2-yl)-propionamide], for which the inhibition at 10 µM worked out at 97.1%.

As to `O=C(CCc1ccccc1)Nc1ncc(Cc2ccc3ccccc3c2)s1` [Compound 22, N-(5-Naphthalen-2-ylmethyl-thiazol-2-yl)-3-phenyl-propionamide], the inhibition at 10 µM was 95.6%.

Take `O=C(CCc1ccc(F)cc1)Nc1ncc(Cc2ccc3ccccc3c2)s1` [Compound 23, 3-(4-Fluoro-phenyl)-N-(5-naphthalen-2-ylmethyl-thiazol-2-yl)-propionamide]: the inhibition at 10 µM stood at 95.8%.

Turning to `O=C(CCc1cccnc1)Nc1ncc(Cc2ccc3ccccc3c2)s1` [Compound 24, N-(5-Naphthalen-2-ylmethyl-thiazol-2-yl)-3-pyridin-3-yl-propionamide], the inhibition at 10 µM was found to be 95.2%.

`O=C(CCc1ccccc1)Nc1ncc(Cc2ccc(F)c(F)c2)s1` [Compound 25, N-[5-(3,4-Difluoro-benzyl)-thiazol-2-yl]-3-phenyl-propionamide]: the inhibition at 10 µM stood at 94.2%.

As to `COc1cccc(CCC(=O)Nc2ncc(Cc3ccc(F)c(F)c3)s2)c1` [Compound 26, N-[5-(3,4-Difluoro-benzyl)-thiazol-2-yl]-3-(3-methoxy-phenyl)-propionamide], the inhibition at 10 µM was determined as 92.9%.

On to `O=C(CCc1cccnc1)Nc1ncc(Cc2ccc(F)c(F)c2)s1` [Compound 27, N-[5-(3,4-Difluoro-benzyl)-thiazol-2-yl]-3-pyridin-3-yl-propionamide], for which the inhibition at 10 µM was 91.2%.

For `O=C(CCc1ccc(F)cc1)Nc1ncc(Cc2ccc(F)c(F)c2)s1` [Compound 28, N-[5-(3,4-Difluoro-benzyl)-thiazol-2-yl]-3-(4-fluoro-phenyl)-propionamide], the inhibition at 10 µM worked out at 95%.

Consider `COc1cccc(CCC(=O)Nc2ncc(Cc3ccc(OC)c(OC)c3)s2)c1` [Compound 29, N-[5-(3,4-Dimethoxy-benzyl)-thiazol-2-yl]-3-(3-methoxy-phenyl)-propionamide], for which the inhibition at 10 µM was 96.6%.

Take `Cc1ccc(CCC(=O)Nc2ncc(Cc3ccc(F)c(F)c3)s2)o1` [Compound 30, N-[5-(3,4-Difluoro-benzyl)-thiazol-2-yl]-3-(5-methyl-furan-2-yl)-propionamide]: the inhibition at 10 µM was 92.3%.

`COc1ccc(Cc2cnc(NC(=O)CCc3ccc(C)o3)s2)cc1OC` [Compound 31, N-[5-(3,4-Dimethoxy-benzyl)-thiazol-2-yl]-3-(5-methyl-furan-2-yl)-propionamide]: the inhibition at 10 µM was 95.8%.

With `O=C(Nc1ncc(Cc2ccc(F)c(F)c2)s1)OCc1ccccc1` [Compound 32, [5-(3,4-Difluoro-benzyl)-thiazol-2-yl]-carbamic acid benzyl ester], the inhibition at 10 µM came to 52.7%.

For the molecule `O=C(Nc1ncc(Cc2ccc3c(c2)OCO3)s1)OCc1ccccc1` [Compound 33, (5-Benzo[1,3]dioxol-5-ylmethyl-thiazol-2-yl)-carbamic acid benzyl ester], the inhibition at 10 µM worked out at 92.4%.

As for `O=C(CCc1ccccc1)Nc1ncc(Cc2c(F)c(F)c(F)c(F)c2F)s1` [Compound 34, N-(5-Pentafluorophenylmethyl-thiazol-2-yl)-3-phenyl-propionamide], the inhibition at 10 µM amounted to 92.8%.

Consider `COc1cccc(CCC(=O)Nc2ncc(Cc3c(F)c(F)c(F)c(F)c3F)s2)c1` [Compound 35, 3-(3-Methoxy-phenyl)-N-(5-pentafluorophenylmethyl-thiazol-2-yl)-propionamide], for which the inhibition at 10 µM came out at 90.4%.

As to `O=C(CCc1cccnc1)Nc1ncc(Cc2c(F)c(F)c(F)c(F)c2F)s1` [Compound 36, N-(5-Pentafluorophenylmethyl-thiazol-2-yl)-3-pyridin-3-yl-propionamide], the inhibition at 10 µM amounted to 94.3%.

`O=C(CCc1cccc(F)c1)Nc1ncc(Cc2ccc3ccccc3c2)s1` [Compound 37, 3-(3-Fluoro-phenyl)-N-(5-naphthalen-2-ylmethyl-thiazol-2-yl)-propionamide]: the inhibition at 10 µM stood at 94.4%.

Take `COc1cccc(CCC(=O)Nc2ncc(Cc3ccc4ccccc4c3)s2)c1` [Compound 38, 3-(3-Methoxy-phenyl)-N-(5-naphthalen-2-ylmethyl-thiazol-2-yl)-propionamide]: the inhibition at 10 µM is 94.2%.

On to `O=C(CCc1ccc(F)cc1)Nc1ncc(Cc2ccc(-c3ccccc3)cc2)s1` [Compound 39, N-(5-Biphenyl-4-ylmethyl-thiazol-2-yl)-3-(4-fluoro-phenyl)-propionamide], for which the inhibition at 10 µM turned out to be 94%.

As to `O=C(CCc1cccnc1)Nc1ncc(Cc2ccc(-c3ccccc3)cc2)s1` [Compound 40, N-(5-Biphenyl-4-ylmethyl-thiazol-2-yl)-3-pyridin-3-yl-propionamide], the inhibition at 10 µM stood at 58.8%.

On to `COc1cc(Cc2cnc(NC(=O)CCc3ccccc3)s2)ccc1OC(=O)OCc1ccccc1` [Compound 41, Carbonic acid benzyl ester 2-methoxy-4-[2-(3-phenyl-propionylamino)-thiazol-5-ylmethyl]-phenyl ester], for which the inhibition at 10 µM is 95.8%.

Take `COc1cc(Cc2cnc(NC(=O)CCc3cccnc3)s2)ccc1OC(=O)OCc1ccccc1` [Compound 42, Carbonic acid benzyl ester 2-methoxy-4-[2-(3-pyridin-3-yl-propionylamino)-thiazol-5-ylmethyl]-phenyl ester]: the inhibition at 10 µM came out at 91.2%.

As to `COc1cccc(CCC(=O)Nc2ncc(Cc3ccc(OC(=O)OCc4ccccc4)c(OC)c3)s2)c1` [Compound 43, Carbonic acid benzyl ester 2-methoxy-4-{2-[3-(3-methoxy-phenyl)-propionylamino]-thiazol-5-ylmethyl}-phenyl ester], the inhibition at 10 µM turned out to be 95.6%.

For the molecule `COc1ccc(Cc2cnc(NC(=O)/C=C/c3ccc(C)o3)s2)cc1` [Compound 44, N-[5-(4-Methoxy-benzyl)-thiazol-2-yl]-3-(5-methyl-furan-2-yl)-acrylamide], the inhibition at 10 µM was 93.1%.

As for `O=C(CCc1ccc(F)cc1)Nc1ncc(Cc2ccc(C(F)(F)F)cc2)s1` [Compound 45, 3-(4-Fluoro-phenyl)-N-[5-(4-trifluoromethyl-benzyl)-thiazol-2-yl]-propionamide], the inhibition at 10 µM amounted to 94%.

Consider `O=C(CCc1cccnc1)Nc1ncc(Cc2ccc(C(F)(F)F)cc2)s1` [Compound 46, 3-Pyridin-3-yl-N-[5-(4-trifluoromethyl-benzyl)-thiazol-2-yl]-propionamide], for which the inhibition at 10 µM is 96%.

With `COc1cccc(CCC(=O)Nc2ncc(Cc3ccc(C(F)(F)F)cc3)s2)c1` [Compound 48, 3-(3-Methoxy-phenyl)-N-[5-(4-trifluoromethyl-benzyl)-thiazol-2-yl]-propionamide], the inhibition at 10 µM was 95.3%.

In the case of `COc1cc(Cc2cnc(NC(=O)CCc3cccnc3)s2)cc(OC)c1OC` [Compound 50, 3-Pyridin-3-yl-N-[5-(3,4,5-trimethoxy-benzyl)-thiazol-2-yl]-propionamide], the inhibition at 10 µM was determined as 97.2%.
